{
  "source": "patent US20020025940A1",
  "about": "“Methods and compositions for sensitive and rapid, functional identification of genomic polynucleotides and use for cellular assays in drug discovery” (Aurora Biosciences Corporation, priority 1997, published 2002)",
  "assay_type_in_all_cases": "cell-based, human",
  "key": {"BLEC Jurkat clones": {"tested_on": "BLEC Jurkat clones", "experiment": "Specificity of activated BLEC Jurkat clones, relative beta-lactamase activity", "conditions": "PMA 8 nM, Thaps 1 microM, CsA 100 nM, PHA 10 microgram/ml", "description": "(§1) Isolated clones from PHA-induced (Example 6) and PHA-repressed (Example 7) procedures described above were characterized to determine the specificity of their modulation and time required for induction or repression. Clones were stimulated with multiple activators or inhibitors over a one to twenty-four hour time interval.\n(§2) In this study, PMA, which is a PKC activator, Thapsigargin which increases intracellular calcium, PHA which activates the T-cell receptor pathway, and cyclosporin A which is a clinically approved immunosuppressant that inhibits the Ca^2+ dependent phosphates calcineurin were investigated for their ability to modulate beta-lactamase expression in PHA induced and repressed BLEC clones."}, "[1]": {"tested_on": "clone C2 (3×NFAT response element linked to beta-lactamase, M1 muscurinic receptor)", "experiment": "Relative beta-lactamase activity of control clone C2", "conditions": "PMA 8 nM, Thaps 1 microM, CsA 100 nM, PHA 10 microgram/ml", "description": "as §1, §2"}, "[2]": {"tested_on": "induced BLEC Jurkat clones", "experiment": "Characterization of induced BLEC Jurkat clones, change in 460/530 ratio", "conditions": "PHA 10 microgram/ml, Thaps 1 microM, PMA 8 nM, Anti-CD3 2 microgram/ml", "description": "These clones represent cells in which the trapping construct had integrated into a gene up regulated by PHA (T-cell) activation. Thus, these cells report the transcriptional activation of a gene upon cellular activation. Individual clones were identified and isolated by FACS using CCF2/AM to detect beta-lactamase activity. This clone isolation method, the induced sorting paradigm, used three sequential and independent stimulation and sorting protocols. […] These control cells were all green.\nThese isolated clones were expanded and tested for PHA inducibility by microscopic inspection with and without PHA stimulation in the presence of CCF2/AM. A total of fifty-five PHA inducible clones were identified using this procedure. The PHA inducibility for these clones ranged from a 1.5 to 40 fold change in the 460/530 ratio as compared to unstimulated control cells. Genomic Southern analysis using a DNA probe encoding beta-lactamase established that these clones represented 34 independent stable vector integration events. A list of clones obtained by the methods of the present invention and their characteristics is provided below in Table 6 and Table 7.\nIn addition to PHA inducible clones, Phobol 12-myristate 13-acetate (PMA) (Calbiochem), Thapsigargin (Thaps) (Calbiochem), and PMA+Thaps inducible clones were isolated using the general procedure set forth above using the indicated inducer rather than PHA. PMA is a specific activator of PKC (protein kinase C) and Thaps is a specific activator of intracellular calcium ion release (Thaps). These clones were isolated using three rounds of FACS using the general procedures described for the PHA inducible clones in Example 5. In such instances, other stimulants were substituted for PHA. PMA was provided at 8 nM, Thaps was provided at 1 microM. When these two stimulants were combined, their concentration was not changed. […] By using varied selection conditions, it is possible to isolate functionally distinct clones downstream of the desired signaling target.\nTable 7 and Table 8 provide data similar to that provided in Table 5 for all of the clones obtained by the methods of Examples 5 to 7."}},
  "data": [
    {"smiles": "CCCCCCCCCCCCCC(=O)O[C@@H]1[C@@H](C)[C@@]2(O)[C@@H](C=C(CO)C[C@]3(O)C(=O)C(C)=C[C@@H]23)[C@@H]2C(C)(C)[C@]12OC(C)=O", "note": "[PMA, Phobol 12-myristate 13-acetate]", "values": [
      {"measurement": "Relative Beta-Lactamase Activity of the Clone by the Indicated Stimulus After 24 hours (% of maximum activated stimuli)", "setting": "BLEC Jurkat clones; clone J32-6D4", "value": 60, "unit": "%"},
      {"measurement": "Relative Beta-Lactamase Activity of the Clone by the Indicated Stimulus After 24 hours (% of maximum activated stimuli)", "setting": "BLEC Jurkat clones; clone J83 97-PPTR2 (repressed paradigm)", "value": 100, "unit": "%"},
      {"measurement": "Relative Beta-Lactamase Activity of the Clone by the Indicated Stimulus After 24 hours (% of maximum activated stimuli)", "setting": "BLEC Jurkat clones; clone J83-PI9", "value": "<1", "unit": "%"},
      {"measurement": "Relative Beta-Lactamase Activity of the Clone by the Indicated Stimulus After 24 hours (% of maximum activated stimuli)", "setting": "BLEC Jurkat clones; clone J83-PTI8", "value": 80, "unit": "%"},
      {"measurement": "Relative Beta-Lactamase Activity of the Clone by the Indicated Stimulus After 24 hours (% of maximum activated stimuli)", "setting": "BLEC Jurkat clones; clone J389-PTI4", "value": 90, "unit": "%"},
      {"measurement": "Relative Beta-Lactamase Activity of the Clone by the Indicated Stimulus After 24 hours (% of maximum activated stimuli)", "setting": "[1]", "value": "<1", "unit": "%"},
      {"measurement": "Change in 460/530 ratio in the indicated clone by the following activator", "setting": "[2]; clone J83PI1", "value": "3-4"},
      {"measurement": "Change in 460/530 ratio in the indicated clone by the following activator", "setting": "[2]; clone J83PI2", "value": "7-8"},
      {"measurement": "Change in 460/530 ratio in the indicated clone by the following activator", "setting": "[2]; clone J83PI3", "value": "3-4"},
      {"measurement": "Change in 460/530 ratio in the indicated clone by the following activator", "setting": "[2]; clone J83PI4", "value": 0},
      {"measurement": "Change in 460/530 ratio in the indicated clone by the following activator", "setting": "[2]; clone J83PI6", "value": 0},
      {"measurement": "Change in 460/530 ratio in the indicated clone by the following activator", "setting": "[2]; clone J83PI7", "value": 2},
      {"measurement": "Change in 460/530 ratio in the indicated clone by the following activator", "setting": "[2]; clone J83PI8", "value": "4-5"},
      {"measurement": "Change in 460/530 ratio in the indicated clone by the following activator", "setting": "[2]; clone J83PI9", "value": 0},
      {"measurement": "Change in 460/530 ratio in the indicated clone by the following activator", "setting": "[2]; clone J83PI13", "value": 0},
      {"measurement": "Change in 460/530 ratio in the indicated clone by the following activator", "setting": "[2]; clone J83PI14", "value": 2},
      {"measurement": "Change in 460/530 ratio in the indicated clone by the following activator", "setting": "[2]; clone J83PI15", "value": 3},
      {"measurement": "Change in 460/530 ratio in the indicated clone by the following activator", "setting": "[2]; clone J83PI16", "value": "3-4"},
      {"measurement": "Change in 460/530 ratio in the indicated clone by the following activator", "setting": "[2]; clone J83PI18", "value": 5},
      {"measurement": "Change in 460/530 ratio in the indicated clone by the following activator", "setting": "[2]; clone J83PI19", "value": 3},
      {"measurement": "Change in 460/530 ratio in the indicated clone by the following activator", "setting": "[2]; clone J97PI1", "value": "3-4"},
      {"measurement": "Change in 460/530 ratio in the indicated clone by the following activator", "setting": "[2]; clone J97PI3", "value": "1-2"},
      {"measurement": "Change in 460/530 ratio in the indicated clone by the following activator", "setting": "[2]; clone J97PI4", "value": "1-2"},
      {"measurement": "Change in 460/530 ratio in the indicated clone by the following activator", "setting": "[2]; clone J97PI5", "value": 1.5},
      {"measurement": "Change in 460/530 ratio in the indicated clone by the following activator", "setting": "[2]; clone J97PI6", "value": "1-2"},
      {"measurement": "Change in 460/530 ratio in the indicated clone by the following activator", "setting": "[2]; clone J97PI7", "value": "1-2"},
      {"measurement": "Change in 460/530 ratio in the indicated clone by the following activator", "setting": "[2]; clone J97PI8", "value": "1-2"},
      {"measurement": "Change in 460/530 ratio in the indicated clone by the following activator", "setting": "[2]; clone J97PI9", "value": "1-2"},
      {"measurement": "Change in 460/530 ratio in the indicated clone by the following activator", "setting": "[2]; clone J97PI10", "value": "1-2"},
      {"measurement": "Change in 460/530 ratio in the indicated clone by the following activator", "setting": "[2]; clone J97PI11", "value": 2},
      {"measurement": "Change in 460/530 ratio in the indicated clone by the following activator", "setting": "[2]; clone J97PI12", "value": "2-3"},
      {"measurement": "Change in 460/530 ratio in the indicated clone by the following activator", "setting": "[2]; clone J97PI13", "value": "1-2"},
      {"measurement": "Change in 460/530 ratio in the indicated clone by the following activator", "setting": "[2]; clone J97PI14", "value": 2},
      {"measurement": "Change in 460/530 ratio in the indicated clone by the following activator", "setting": "[2]; clone J97PI15", "value": "1-2"},
      {"measurement": "Change in 460/530 ratio in the indicated clone by the following activator", "setting": "[2]; clone J97PI17", "value": "1-2"},
      {"measurement": "Change in 460/530 ratio in the indicated clone by the following activator", "setting": "[2]; clone J97PI18", "value": "1-2"},
      {"measurement": "Change in 460/530 ratio in the indicated clone by the following activator", "setting": "[2]; clone J97PI19", "value": "1-2"},
      {"measurement": "Change in 460/530 ratio in the indicated clone by the following activator", "setting": "[2]; clone J97PI20", "value": "1-2"},
      {"measurement": "Change in 460/530 ratio in the indicated clone by the following activator", "setting": "[2]; clone J97PI21", "value": "1-2"},
      {"measurement": "Change in 460/530 ratio in the indicated clone by the following activator", "setting": "[2]; clone J97PI22", "value": "2-3"},
      {"measurement": "Change in 460/530 ratio in the indicated clone by the following activator", "setting": "[2]; clone J97PI23", "value": "1-2"},
      {"measurement": "Change in 460/530 ratio in the indicated clone by the following activator", "setting": "[2]; clone J97PI24", "value": "2-3"},
      {"measurement": "Change in 460/530 ratio in the indicated clone by the following activator", "setting": "[2]; clone J97PI116", "value": "2-3"},
      {"measurement": "Change in 460/530 ratio in the indicated clone by the following activator", "setting": "[2]; clone J325B5", "value": "2-3"},
      {"measurement": "Change in 460/530 ratio in the indicated clone by the following activator", "setting": "[2]; clone J325B11", "value": "2-3"},
      {"measurement": "Change in 460/530 ratio in the indicated clone by the following activator", "setting": "[2]; clone J325E1", "value": 8},
      {"measurement": "Change in 460/530 ratio in the indicated clone by the following activator", "setting": "[2]; clone J325E3", "value": "2-3"},
      {"measurement": "Change in 460/530 ratio in the indicated clone by the following activator", "setting": "[2]; clone J325E6", "value": "3-4"},
      {"measurement": "Change in 460/530 ratio in the indicated clone by the following activator", "setting": "[2]; clone J325G4", "value": "3-4"},
      {"measurement": "Change in 460/530 ratio in the indicated clone by the following activator", "setting": "[2]; clone J326C9", "value": "2-3"},
      {"measurement": "Change in 460/530 ratio in the indicated clone by the following activator", "setting": "[2]; clone J326D4", "value": 10},
      {"measurement": "Change in 460/530 ratio in the indicated clone by the following activator", "setting": "[2]; clone J326D7", "value": 10},
      {"measurement": "Change in 460/530 ratio in the indicated clone by the following activator", "setting": "[2]; clone J326F7", "value": 10},
      {"measurement": "Change in 460/530 ratio in the indicated clone by the following activator", "setting": "[2]; clone J326H4", "value": 10},
      {"measurement": "Change in 460/530 ratio in the indicated clone by the following activator", "setting": "[2]; clone J389PM2", "value": "3-4"},
      {"measurement": "Change in 460/530 ratio in the indicated clone by the following activator", "setting": "[2]; clone J389PM3", "value": "2-3"},
      {"measurement": "Change in 460/530 ratio in the indicated clone by the following activator", "setting": "[2]; clone J389PM5", "value": "3-4"},
      {"measurement": "Change in 460/530 ratio in the indicated clone by the following activator", "setting": "[2]; clone J389PM7", "value": "1-2"},
      {"measurement": "Change in 460/530 ratio in the indicated clone by the following activator", "setting": "[2]; clone J389PM8", "value": "2-3"},
      {"measurement": "Change in 460/530 ratio in the indicated clone by the following activator", "setting": "[2]; clone J389PT4", "value": 12},
      {"measurement": "Change in 460/530 ratio in the indicated clone by the following activator", "setting": "[2]; clone J389PTt", "value": "8-9"},
      {"measurement": "Change in 460/530 ratio in the indicated clone by the following activator", "setting": "[2]; clone J389TI1", "value": "1-2"},
      {"measurement": "Change in 460/530 ratio in the indicated clone by the following activator", "setting": "[2]; clone J389TI4", "value": "1-2"}
    ]}
  ]
}
